This is an account of results in ChEMBL document CHEMBL4229430, “Inducing protein-protein interactions with molecular glues” (Bioorg Med Chem Lett, 2018).

The structures appear in SMILES notation. pKd: −log10 of the molar value.

For experiment [1], the target named is T1, 14-3-3 protein zeta/delta (Homo sapiens, UniProt P63104).
T1 sequence (P63104 whole entry): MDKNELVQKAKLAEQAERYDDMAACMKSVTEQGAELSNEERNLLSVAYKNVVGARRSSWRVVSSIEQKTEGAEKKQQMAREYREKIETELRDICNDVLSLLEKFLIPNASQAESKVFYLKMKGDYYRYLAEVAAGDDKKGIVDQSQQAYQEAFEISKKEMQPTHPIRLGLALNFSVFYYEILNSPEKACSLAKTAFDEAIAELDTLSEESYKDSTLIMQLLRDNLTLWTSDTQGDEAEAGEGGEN
The experiment is described as follows: Binding affinity to human GST-tagged 14-3-3zeta expressed in Escherichia coli assessed as Kd for 14-3-3zeta binding to H+-ATPase peptide motif by isothermal titration calorimetric method. In general terms: ITC needs no label: the signal is the heat of the interaction.

The nature of experiment [2]: Binding affinity to tobacco 14-3-3epsilon T14-3eDC mutant expressed in Escherichia coli assessed as Kd for 14-3-3epsilon binding to H+-ATPase peptide motif by surface plasmon resonance assay. The arrangement: species or system Nicotiana tabacum.

As to `C=CC(C)(C)OC[C@H]1O[C@H](O[C@@H]2C3=C([C@H](C)COC(C)=O)C[C@H](O)[C@]3(C)/C=C3/[C@@H](COC)CC[C@H]3[C@@H](C)[C@H]2O)[C@H](O)[C@@H](OC(C)=O)[C@@H]1O`, the negative logarithm of the Kd (pKd) in experiment [1] is 6.15.

In the case of `O=C(C1=C(O)C(=O)N(c2ccc(O)c(C(=O)O)c2)C1c1ccc([N+](=O)[O-])cc1)c1ccccc1` (stereo not drawn), in experiment [2], the pKd is 4.10.

Take `CC(C)CC(NC(=O)[C@H](O)[C@H](N)Cc1ccccc1)C(=O)O` (stereo partly drawn): the pKd in experiment [2] was 5.74.

The pKd is −log10 of the Kd, conventionally taken in molar units.
